Measured values as given in the kinase profiling compilation of Christmann-Franck et al. (2016).

Key:
Assay in all cases: radiometric filter-binding kinase assay, Kinaseprofiler
[1] = target: MAP3K5 (human) (UniProt Q99683); conditions: ATP 200 µM
[2] = target: PDPK1 (human) (UniProt O15530); conditions: ATP 10 µM
[3] = target: CAMK2B (human) (UniProt Q13554); conditions: ATP 15 µM
[4] = target: PAK6 (human) (UniProt Q9NQU5); conditions: ATP 10 µM
[5] = target: FGR (human) (UniProt P09769); conditions: compound 10.0 µM; ATP 45 µM
[6] = target: JAK3 JH1 catalytic (human) (UniProt P52333); conditions: ATP 10 µM
[7] = target: FLT3 (human) (UniProt P36888); conditions: compound 1.0 µM; ATP 200 µM
[8] = target: RPS6KA2 KD1 KD2 (human) (UniProt Q15349); conditions: compound 1.0 µM; ATP 10 µM
[9] = target: BTK (human) (UniProt Q06187); conditions: ATP 200 µM
[10] = target: GCK (human) (UniProt Q12851); conditions: compound 1.0 µM; ATP 200 µM
[11] = target: TLK2 (human) (UniProt Q86UE8); conditions: compound 10.0 µM; ATP 10 µM
[12] = target: CAMK2D (human) (UniProt Q13557); conditions: compound 1.0 µM; ATP 10 µM
[13] = target: FER (human) (UniProt P16591); conditions: compound 10.0 µM; ATP 70 µM
[14] = target: BRSK1 (human) (UniProt Q8TDC3); conditions: ATP 200 µM
[15] = target: ULK2 (human) (UniProt Q8IYT8); conditions: compound 10.0 µM; ATP 15 µM
[16] = target: MTOR FKBP1A (human) (UniProt P42345+P62942); conditions: ATP 45 µM
[17] = target: TSSK1B (human) (UniProt Q9BXA7); conditions: ATP 15 µM
[18] = target: MINK1 (human) (UniProt Q8N4C8); conditions: compound 1.0 µM; ATP 185 µM
[19] = target: MAP3K9 (human) (UniProt P80192); conditions: compound 10.0 µM; ATP 45 µM
[20] = target: RPS6KA6 KD1 KD2 (human) (UniProt Q9UK32); conditions: compound 1.0 µM; ATP 45 µM
[21] = test system: BLK (human), P51451 [M278V]; conditions: compound 10.0 µM; ATP 45 µM
[22] = target: PRKAA1 PRKAB1 PRKAG1 (human) (UniProt P54619+Q13131+Q9Y478); conditions: ATP 45 µM
[23] = target: FLT1 (human) (UniProt P17948); conditions: ATP 200 µM
[24] = target: ULK3 (human) (UniProt Q6PHR2); conditions: compound 1.0 µM; ATP 10 µM
[25] = target: MAP3K7 (human) (UniProt O43318); conditions: ATP 45 µM
[26] = target: PRKAA2 PRKAB1 PRKAG1 (human) (UniProt P54619+P54646+Q9Y478); conditions: ATP 45 µM
[27] = target: MAPK3 (human) (UniProt P27361); conditions: compound 10.0 µM; ATP 70 µM
[28] = target: STK17A (human) (UniProt Q9UEE5); conditions: compound 1.0 µM; ATP 10 µM
[29] = target: MKNK2 (human) (UniProt Q9HBH9); conditions: ATP 120 µM
[30] = target: CDK2 CCNE1 (human) (UniProt P24941+P24864); conditions: ATP 120 µM
[31] = target: IRAK1 (human) (UniProt P51617); conditions: compound 10.0 µM; ATP 45 µM
[32] = target: CHEK1 (human) (UniProt O14757); conditions: compound 10.0 µM; ATP 90 µM
[33] = target: PIM2 (human) (UniProt Q9P1W9); conditions: compound 10.0 µM; ATP 15 µM
[34] = target: CAMK2G (human) (UniProt Q13555); conditions: compound 10.0 µM; ATP 10 µM
[35] = target: FYN (human) (UniProt P06241); conditions: compound 10.0 µM; ATP 70 µM

MKNK2 (human), sequence (Q9HBH9 whole entry, looked up): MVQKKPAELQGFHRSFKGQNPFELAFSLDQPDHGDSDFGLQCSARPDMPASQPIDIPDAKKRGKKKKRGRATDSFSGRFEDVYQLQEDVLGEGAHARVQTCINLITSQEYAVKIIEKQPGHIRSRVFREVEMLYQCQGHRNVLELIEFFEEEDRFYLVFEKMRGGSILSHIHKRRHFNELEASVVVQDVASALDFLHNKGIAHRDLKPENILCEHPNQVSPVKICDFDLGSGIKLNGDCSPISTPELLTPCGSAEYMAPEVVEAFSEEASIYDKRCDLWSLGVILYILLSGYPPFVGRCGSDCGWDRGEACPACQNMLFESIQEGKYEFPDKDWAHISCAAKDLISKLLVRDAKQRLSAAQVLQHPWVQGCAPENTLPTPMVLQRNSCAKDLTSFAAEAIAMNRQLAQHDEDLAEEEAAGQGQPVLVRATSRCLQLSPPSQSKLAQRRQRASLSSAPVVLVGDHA
BRSK1 (human), sequence (Q8TDC3 whole entry, looked up): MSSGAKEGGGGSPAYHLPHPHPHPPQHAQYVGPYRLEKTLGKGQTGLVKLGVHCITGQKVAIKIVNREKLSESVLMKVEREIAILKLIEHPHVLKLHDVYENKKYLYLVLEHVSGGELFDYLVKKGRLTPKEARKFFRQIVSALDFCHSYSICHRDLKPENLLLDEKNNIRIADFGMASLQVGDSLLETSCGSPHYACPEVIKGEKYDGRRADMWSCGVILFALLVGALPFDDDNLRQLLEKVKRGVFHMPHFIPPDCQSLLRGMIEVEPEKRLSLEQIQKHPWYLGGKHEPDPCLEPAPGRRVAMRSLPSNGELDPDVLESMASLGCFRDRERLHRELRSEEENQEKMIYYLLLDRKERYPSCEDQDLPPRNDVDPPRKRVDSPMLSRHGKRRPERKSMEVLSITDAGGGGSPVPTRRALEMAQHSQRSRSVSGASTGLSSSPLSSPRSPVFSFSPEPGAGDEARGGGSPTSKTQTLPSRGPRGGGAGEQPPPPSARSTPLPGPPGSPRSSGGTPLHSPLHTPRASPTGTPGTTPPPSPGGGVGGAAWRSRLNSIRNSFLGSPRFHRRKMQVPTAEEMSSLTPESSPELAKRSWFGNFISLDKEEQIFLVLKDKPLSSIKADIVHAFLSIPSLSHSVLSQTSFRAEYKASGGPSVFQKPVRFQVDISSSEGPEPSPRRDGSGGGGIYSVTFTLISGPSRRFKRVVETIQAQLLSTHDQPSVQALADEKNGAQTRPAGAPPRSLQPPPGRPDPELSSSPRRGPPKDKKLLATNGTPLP
MTOR FKBP1A (human), sequence (P62942 whole entry, looked up, other chains not shown): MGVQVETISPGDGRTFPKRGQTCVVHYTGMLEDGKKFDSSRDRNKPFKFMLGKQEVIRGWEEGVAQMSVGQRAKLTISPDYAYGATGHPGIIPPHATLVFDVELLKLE
PDPK1 (human), sequence (O15530 whole entry, looked up): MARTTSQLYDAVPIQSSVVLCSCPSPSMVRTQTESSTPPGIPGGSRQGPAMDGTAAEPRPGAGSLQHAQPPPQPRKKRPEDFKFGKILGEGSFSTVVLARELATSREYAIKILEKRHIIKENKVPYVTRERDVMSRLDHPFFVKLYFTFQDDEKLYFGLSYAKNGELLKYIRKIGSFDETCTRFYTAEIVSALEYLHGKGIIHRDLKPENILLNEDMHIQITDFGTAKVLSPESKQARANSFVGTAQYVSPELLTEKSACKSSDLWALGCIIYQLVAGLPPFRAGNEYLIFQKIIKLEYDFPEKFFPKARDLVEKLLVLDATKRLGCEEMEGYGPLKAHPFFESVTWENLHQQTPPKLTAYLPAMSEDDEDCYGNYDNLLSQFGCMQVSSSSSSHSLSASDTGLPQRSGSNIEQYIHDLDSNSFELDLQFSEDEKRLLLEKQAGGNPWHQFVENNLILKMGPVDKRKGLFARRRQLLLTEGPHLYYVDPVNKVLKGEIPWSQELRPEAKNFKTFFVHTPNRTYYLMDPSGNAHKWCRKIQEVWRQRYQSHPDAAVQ
BTK (human), sequence (Q06187 whole entry, looked up): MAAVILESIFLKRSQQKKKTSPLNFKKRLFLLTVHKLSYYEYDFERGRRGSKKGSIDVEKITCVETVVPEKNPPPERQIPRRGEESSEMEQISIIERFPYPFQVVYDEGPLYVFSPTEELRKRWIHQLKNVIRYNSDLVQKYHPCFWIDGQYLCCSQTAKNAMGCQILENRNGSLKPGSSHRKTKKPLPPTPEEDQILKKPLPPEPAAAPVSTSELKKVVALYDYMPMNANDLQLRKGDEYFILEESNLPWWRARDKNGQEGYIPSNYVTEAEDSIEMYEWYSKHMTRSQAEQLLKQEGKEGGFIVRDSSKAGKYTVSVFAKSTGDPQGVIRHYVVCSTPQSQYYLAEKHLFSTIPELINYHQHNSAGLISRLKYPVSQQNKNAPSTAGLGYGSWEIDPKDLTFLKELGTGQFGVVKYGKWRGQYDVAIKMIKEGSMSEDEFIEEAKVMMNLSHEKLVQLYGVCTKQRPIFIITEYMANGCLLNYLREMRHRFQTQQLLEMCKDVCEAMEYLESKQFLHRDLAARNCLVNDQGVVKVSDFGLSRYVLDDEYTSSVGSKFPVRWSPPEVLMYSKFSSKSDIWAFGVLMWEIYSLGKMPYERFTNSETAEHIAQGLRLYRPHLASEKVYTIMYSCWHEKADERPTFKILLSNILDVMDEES
CAMK2B (human), sequence (Q13554 whole entry, looked up): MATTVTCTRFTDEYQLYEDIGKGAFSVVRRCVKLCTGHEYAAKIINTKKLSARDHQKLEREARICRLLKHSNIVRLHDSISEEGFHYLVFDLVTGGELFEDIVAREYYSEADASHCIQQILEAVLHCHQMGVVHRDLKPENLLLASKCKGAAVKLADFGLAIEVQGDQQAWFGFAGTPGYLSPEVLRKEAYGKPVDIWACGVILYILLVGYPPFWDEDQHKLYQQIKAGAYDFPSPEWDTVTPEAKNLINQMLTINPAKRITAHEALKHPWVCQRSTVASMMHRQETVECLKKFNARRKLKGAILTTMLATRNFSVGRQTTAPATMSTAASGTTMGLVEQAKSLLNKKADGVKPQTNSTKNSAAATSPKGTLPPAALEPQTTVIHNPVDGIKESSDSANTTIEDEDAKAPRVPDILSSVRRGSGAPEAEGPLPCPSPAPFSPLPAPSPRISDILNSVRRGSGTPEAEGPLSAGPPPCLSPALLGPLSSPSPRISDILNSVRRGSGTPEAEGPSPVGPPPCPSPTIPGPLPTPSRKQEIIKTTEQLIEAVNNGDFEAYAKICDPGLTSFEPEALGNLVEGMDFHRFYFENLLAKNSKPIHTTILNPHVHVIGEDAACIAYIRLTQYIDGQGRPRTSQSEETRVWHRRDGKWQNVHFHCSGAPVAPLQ
MAP3K5 (human), sequence (Q99683 whole entry, looked up): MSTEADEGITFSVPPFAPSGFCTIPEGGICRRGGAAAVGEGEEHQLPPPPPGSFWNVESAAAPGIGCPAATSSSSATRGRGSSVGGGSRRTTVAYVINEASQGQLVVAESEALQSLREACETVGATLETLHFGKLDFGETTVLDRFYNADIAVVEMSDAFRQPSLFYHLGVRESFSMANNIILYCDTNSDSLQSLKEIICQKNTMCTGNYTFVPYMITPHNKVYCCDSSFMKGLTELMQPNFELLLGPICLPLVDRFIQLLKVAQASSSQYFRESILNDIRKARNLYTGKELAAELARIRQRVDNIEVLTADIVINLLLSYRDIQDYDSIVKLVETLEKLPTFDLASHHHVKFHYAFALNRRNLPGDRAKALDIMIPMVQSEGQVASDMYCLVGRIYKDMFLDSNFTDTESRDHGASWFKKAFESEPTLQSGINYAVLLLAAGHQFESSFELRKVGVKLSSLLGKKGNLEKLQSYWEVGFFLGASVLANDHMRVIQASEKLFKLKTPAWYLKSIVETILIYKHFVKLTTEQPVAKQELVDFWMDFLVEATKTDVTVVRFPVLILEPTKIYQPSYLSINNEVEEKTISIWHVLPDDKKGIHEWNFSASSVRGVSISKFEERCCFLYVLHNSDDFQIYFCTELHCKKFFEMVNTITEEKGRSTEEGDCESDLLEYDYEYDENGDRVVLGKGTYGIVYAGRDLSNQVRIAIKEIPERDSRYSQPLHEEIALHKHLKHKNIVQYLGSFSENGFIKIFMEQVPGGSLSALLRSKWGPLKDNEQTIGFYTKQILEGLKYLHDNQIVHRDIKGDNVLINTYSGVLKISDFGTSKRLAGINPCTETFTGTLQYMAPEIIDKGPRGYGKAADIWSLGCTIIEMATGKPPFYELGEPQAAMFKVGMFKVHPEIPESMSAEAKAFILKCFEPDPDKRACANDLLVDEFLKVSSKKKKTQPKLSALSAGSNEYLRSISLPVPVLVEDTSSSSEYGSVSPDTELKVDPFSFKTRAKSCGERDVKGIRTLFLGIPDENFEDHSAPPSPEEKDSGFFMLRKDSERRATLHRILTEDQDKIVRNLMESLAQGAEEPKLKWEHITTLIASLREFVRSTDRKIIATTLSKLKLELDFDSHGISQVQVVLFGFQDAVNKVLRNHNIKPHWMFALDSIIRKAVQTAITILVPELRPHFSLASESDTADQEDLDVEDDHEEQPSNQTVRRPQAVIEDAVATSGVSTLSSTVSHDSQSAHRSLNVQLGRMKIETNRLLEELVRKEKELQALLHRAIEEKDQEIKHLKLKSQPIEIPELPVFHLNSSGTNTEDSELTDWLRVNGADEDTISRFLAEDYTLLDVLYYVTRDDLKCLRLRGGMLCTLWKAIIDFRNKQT
TSSK1B (human), sequence (Q9BXA7 whole entry, looked up): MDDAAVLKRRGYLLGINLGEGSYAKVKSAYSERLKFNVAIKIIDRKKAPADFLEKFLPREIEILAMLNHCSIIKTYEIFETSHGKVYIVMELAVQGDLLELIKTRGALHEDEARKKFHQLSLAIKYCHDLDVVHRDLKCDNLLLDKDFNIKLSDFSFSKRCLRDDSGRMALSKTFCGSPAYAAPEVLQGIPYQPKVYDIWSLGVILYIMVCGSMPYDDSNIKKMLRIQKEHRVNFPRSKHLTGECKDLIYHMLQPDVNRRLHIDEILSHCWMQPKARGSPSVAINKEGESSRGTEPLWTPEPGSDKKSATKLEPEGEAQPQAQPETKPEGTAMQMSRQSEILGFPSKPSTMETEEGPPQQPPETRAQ

Question: Which residual activity ([1]; compound 1.0 µM) does the source give for COC(=O)[C@]1(O)C[C@@H]2O[C@@]1(C)n1c3ccccc3c3c4c(c5c6ccccc6n2c5c31)C(=O)NC4 here?
Answer: 0%

Question: What about the residual activity ([1]; compound 10.0 µM) of the same compound?
Answer: 0%

Question: What about the residual activity ([2]; compound 1.0 µM) of the same compound?
Answer: -1%

Question: And the residual activity ([2]; compound 10.0 µM)?
Answer: 0%

Question: And the residual activity ([3]; compound 1.0 µM)?
Answer: 0%

Question: What about the residual activity ([3]; compound 10.0 µM) of the same compound?
Answer: -1%

Question: What about the residual activity ([4]; compound 1.0 µM) of the same compound?
Answer: 0%

Question: What about the residual activity ([4]; compound 10.0 µM) of the same compound?
Answer: -1%

Question: What about the residual activity [5] of the same compound?
Answer: -1%

Question: And the residual activity ([6]; compound 1.0 µM)?
Answer: 0%

Question: What about the residual activity ([6]; compound 10.0 µM) of the same compound?
Answer: 0%

Question: And the residual activity [7]?
Answer: 0%

Question: What about the residual activity [8] of the same compound?
Answer: 0%

Question: What about the residual activity ([9]; compound 1.0 µM) of the same compound?
Answer: -1%

Question: What about the residual activity ([9]; compound 10.0 µM) of the same compound?
Answer: -1%

Question: What about the residual activity [10] of the same compound?
Answer: 0%

Question: And the residual activity [11]?
Answer: 0%

Question: What about the residual activity [12] of the same compound?
Answer: 0%

Question: And the residual activity [13]?
Answer: 0%

Question: And the residual activity ([14]; compound 1.0 µM)?
Answer: -1%

Question: What about the residual activity ([14]; compound 10.0 µM) of the same compound?
Answer: 0%

Question: What about the residual activity [15] of the same compound?
Answer: 0%

Question: What about the residual activity ([16]; compound 1.0 µM) of the same compound?
Answer: 89%

Question: What about the residual activity ([16]; compound 10.0 µM) of the same compound?
Answer: 79%

Question: And the residual activity ([17]; compound 1.0 µM)?
Answer: -1%

Question: What about the residual activity ([17]; compound 10.0 µM) of the same compound?
Answer: 0%

Question: What about the residual activity [18] of the same compound?
Answer: 0%

Question: What about the residual activity [19] of the same compound?
Answer: 0%

Question: And the residual activity [20]?
Answer: -2%

Question: And the residual activity [21]?
Answer: 0%

Question: And the residual activity ([22]; compound 1.0 µM)?
Answer: -1%

Question: And the residual activity ([22]; compound 10.0 µM)?
Answer: 0%

Question: What about the residual activity ([23]; compound 1.0 µM) of the same compound?
Answer: 0%

Question: What about the residual activity ([23]; compound 10.0 µM) of the same compound?
Answer: 0%

Question: What about the residual activity [24] of the same compound?
Answer: 0%

Question: And the residual activity ([25]; compound 1.0 µM)?
Answer: -1%

Question: And the residual activity ([25]; compound 10.0 µM)?
Answer: -5%

Question: What about the residual activity ([26]; compound 1.0 µM) of the same compound?
Answer: -5%

Question: What about the residual activity ([26]; compound 10.0 µM) of the same compound?
Answer: 1%

Question: What about the residual activity [27] of the same compound?
Answer: -1%

Question: And the residual activity [28]?
Answer: 0%

Question: What about the residual activity ([29]; compound 1.0 µM) of the same compound?
Answer: 0%

Question: What about the residual activity ([29]; compound 10.0 µM) of the same compound?
Answer: 0%

Question: And the residual activity ([30]; compound 1.0 µM)?
Answer: 6%

Question: What about the residual activity ([30]; compound 10.0 µM) of the same compound?
Answer: 0%

Question: What about the residual activity [31] of the same compound?
Answer: 0%

Question: What about the residual activity [32] of the same compound?
Answer: -1%

Question: And the residual activity [33]?
Answer: -2%

Question: What about the residual activity [34] of the same compound?
Answer: 0%

Question: And the residual activity [35]?
Answer: 0%
